Experiment [1] has as its target Nitric oxide sythases; iNOS & nNOS (Homo sapiens) (UniProt P29475+P35228). As to the kind of experiment: Selectivity ratio of IC50 for recombinant human iNOS to IC50 for recombinant human nNOS.
For a further experiment, the species on record is Homo sapiens. As to the kind of experiment: Selectivity ratio of IC50 for recombinant human eNOS to IC50 for recombinant human nNOS.
Experiment [2] deals with Nitric oxide synthase, inducible (Homo sapiens, UniProt P35228). As to the kind of experiment: Inhibition of recombinant human iNOS expressed in baculovirus infected insect Sf9 cells assessed as conversion of [3H]-L-arginine into [3H]-L-citrulline by radiometric method.
Sequence of Nitric oxide synthase, inducible (P35228 whole entry): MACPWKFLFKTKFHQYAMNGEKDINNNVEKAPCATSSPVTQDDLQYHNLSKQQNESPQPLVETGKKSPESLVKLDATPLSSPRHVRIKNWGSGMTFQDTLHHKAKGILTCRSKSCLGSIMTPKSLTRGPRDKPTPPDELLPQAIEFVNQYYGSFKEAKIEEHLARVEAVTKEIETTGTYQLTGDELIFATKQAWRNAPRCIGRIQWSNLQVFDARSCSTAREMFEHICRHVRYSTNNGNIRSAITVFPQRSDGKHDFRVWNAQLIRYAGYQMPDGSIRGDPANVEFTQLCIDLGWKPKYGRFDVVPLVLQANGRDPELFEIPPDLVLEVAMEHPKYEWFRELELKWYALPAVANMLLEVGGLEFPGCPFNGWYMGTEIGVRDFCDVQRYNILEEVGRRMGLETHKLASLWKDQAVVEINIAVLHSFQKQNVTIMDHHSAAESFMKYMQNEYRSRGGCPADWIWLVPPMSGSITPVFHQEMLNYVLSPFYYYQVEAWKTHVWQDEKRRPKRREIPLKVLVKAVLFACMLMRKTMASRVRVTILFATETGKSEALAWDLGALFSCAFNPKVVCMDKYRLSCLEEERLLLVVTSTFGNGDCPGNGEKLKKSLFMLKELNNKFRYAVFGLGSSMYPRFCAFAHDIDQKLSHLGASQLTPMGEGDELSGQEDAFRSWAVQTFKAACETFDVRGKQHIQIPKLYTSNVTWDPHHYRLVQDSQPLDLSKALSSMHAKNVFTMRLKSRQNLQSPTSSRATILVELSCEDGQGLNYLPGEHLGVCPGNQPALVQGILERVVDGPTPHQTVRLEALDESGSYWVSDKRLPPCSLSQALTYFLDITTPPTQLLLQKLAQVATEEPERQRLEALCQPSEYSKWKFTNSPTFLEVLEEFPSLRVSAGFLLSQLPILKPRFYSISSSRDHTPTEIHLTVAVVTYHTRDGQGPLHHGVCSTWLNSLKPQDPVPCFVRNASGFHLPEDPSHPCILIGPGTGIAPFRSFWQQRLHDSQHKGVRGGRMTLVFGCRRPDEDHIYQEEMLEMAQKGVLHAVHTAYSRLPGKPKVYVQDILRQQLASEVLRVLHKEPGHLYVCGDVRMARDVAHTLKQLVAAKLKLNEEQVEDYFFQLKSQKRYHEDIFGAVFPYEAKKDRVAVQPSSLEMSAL
The target of the next experiment is T1, Nitric oxide synthase 3 (Homo sapiens, UniProt P29474).
T1 sequence (P29474 whole entry): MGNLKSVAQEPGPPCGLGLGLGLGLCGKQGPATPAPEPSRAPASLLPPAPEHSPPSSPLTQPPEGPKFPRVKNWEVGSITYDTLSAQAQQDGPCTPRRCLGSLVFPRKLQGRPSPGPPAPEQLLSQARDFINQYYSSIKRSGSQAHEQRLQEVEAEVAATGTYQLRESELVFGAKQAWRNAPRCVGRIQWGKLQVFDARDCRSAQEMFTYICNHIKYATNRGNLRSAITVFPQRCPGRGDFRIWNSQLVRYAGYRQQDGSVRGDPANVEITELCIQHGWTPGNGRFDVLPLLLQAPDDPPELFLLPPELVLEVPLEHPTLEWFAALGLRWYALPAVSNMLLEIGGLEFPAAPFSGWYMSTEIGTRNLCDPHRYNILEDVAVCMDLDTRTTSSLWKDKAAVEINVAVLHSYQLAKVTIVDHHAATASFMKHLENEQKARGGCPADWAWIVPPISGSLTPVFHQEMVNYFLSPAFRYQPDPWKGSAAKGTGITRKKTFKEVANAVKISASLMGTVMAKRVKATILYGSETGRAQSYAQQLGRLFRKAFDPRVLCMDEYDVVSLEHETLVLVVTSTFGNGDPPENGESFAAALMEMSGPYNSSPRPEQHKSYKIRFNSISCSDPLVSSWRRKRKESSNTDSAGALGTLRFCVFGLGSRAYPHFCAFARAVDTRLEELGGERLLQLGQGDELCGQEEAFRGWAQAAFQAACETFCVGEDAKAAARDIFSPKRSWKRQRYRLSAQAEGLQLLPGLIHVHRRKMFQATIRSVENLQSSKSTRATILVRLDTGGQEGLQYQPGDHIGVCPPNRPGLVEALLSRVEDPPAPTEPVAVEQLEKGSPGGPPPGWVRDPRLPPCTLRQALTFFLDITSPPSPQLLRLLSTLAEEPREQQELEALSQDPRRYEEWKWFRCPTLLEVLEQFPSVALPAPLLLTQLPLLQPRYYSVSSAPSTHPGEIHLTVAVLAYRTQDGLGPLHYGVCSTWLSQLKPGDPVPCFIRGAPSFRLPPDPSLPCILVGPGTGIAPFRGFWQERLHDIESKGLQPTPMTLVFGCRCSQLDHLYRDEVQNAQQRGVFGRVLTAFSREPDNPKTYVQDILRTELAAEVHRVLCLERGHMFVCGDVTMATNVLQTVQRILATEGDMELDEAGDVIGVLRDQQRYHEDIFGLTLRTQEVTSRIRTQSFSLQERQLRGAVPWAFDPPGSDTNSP
As to the kind of experiment: Inhibition of recombinant human eNOS expressed in baculovirus infected insect Sf9 cells assessed as conversion of [3H]-L-arginine into [3H]-L-citrulline by radiometric method.

For a further experiment, the target named is Nitric oxide synthase 1 (Homo sapiens, UniProt P29475). As to the kind of experiment: Inhibition of recombinant human nNOS expressed in baculovirus infected insect Sf9 cells assessed as conversion of [3H]-L-arginine into [3H]-L-citrulline by radiometric method.
Sequence of Nitric oxide synthase 1 (P29475 whole entry): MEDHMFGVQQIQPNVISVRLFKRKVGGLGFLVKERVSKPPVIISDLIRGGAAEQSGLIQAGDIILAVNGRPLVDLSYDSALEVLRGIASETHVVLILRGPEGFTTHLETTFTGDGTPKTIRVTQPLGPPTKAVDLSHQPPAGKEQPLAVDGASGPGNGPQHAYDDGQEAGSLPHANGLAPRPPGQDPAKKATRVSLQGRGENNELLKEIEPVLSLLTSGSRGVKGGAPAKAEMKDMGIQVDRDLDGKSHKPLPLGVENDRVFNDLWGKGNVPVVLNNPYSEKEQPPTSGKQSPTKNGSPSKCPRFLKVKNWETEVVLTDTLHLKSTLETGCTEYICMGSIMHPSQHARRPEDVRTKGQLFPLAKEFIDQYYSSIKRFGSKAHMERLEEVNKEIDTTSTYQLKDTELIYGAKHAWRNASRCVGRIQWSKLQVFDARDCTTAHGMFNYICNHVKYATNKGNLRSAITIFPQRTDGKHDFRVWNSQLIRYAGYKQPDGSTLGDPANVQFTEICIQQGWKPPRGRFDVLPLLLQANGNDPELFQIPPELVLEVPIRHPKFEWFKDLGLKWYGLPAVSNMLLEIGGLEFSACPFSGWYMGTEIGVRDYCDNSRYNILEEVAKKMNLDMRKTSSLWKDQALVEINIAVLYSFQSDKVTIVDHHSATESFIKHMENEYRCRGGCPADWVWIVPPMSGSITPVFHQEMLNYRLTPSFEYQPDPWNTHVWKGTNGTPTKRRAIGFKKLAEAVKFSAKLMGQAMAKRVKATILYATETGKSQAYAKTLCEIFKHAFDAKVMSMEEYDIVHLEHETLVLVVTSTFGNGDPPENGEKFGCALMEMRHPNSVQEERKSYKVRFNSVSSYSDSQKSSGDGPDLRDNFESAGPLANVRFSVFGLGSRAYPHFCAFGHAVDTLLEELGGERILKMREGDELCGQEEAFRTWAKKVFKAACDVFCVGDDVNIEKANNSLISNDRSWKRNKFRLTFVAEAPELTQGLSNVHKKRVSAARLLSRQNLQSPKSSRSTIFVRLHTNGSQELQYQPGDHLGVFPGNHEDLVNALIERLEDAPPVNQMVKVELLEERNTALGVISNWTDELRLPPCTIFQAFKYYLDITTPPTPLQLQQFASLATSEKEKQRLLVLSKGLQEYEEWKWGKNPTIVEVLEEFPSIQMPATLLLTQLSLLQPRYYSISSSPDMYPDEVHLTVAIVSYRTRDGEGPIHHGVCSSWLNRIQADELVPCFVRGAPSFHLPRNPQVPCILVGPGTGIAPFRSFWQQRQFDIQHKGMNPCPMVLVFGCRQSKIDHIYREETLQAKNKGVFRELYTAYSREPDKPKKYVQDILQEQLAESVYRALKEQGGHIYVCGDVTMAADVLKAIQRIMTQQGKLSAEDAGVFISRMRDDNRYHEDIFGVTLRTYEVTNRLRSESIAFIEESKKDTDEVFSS
Experiment [3] has as its system Rattus norvegicus. As to the kind of experiment: Antiallodynic activity in Sprague-Dawley rat model of migraine pain assessed as attenuation of cutaneous allodynia in the hind-paws at 30 mg/kg, po administered 15 mins prior to application of inflammatory soup measured between 2 to 6 hrs. In kind it is functional, organism-based. Further details: dose 30 mg/kg.
Experiment [4] deals with Rattus norvegicus. As to the kind of experiment: Antiallodynic activity in Sprague-Dawley rat model of migraine pain assessed as attenuation of cutaneous allodynia in the hind-paws at 30 mg/kg, po administered 15 mins prior to application of inflammatory soup measured at 4 hrs. Further details: dose 30 mg/kg. In kind it is functional, organism-based.

Active and inactive are the calls of the source. The calls are words filed in the database; no cut-off is given here.

Sequence of Nitric oxide sythases; iNOS & nNOS (Homo sapiens) (P29475 whole entry, looked up): as the sequence (P29475 whole entry) above
Sequence of Nitric oxide sythases; iNOS & nNOS (Homo sapiens) (P35228 whole entry, looked up): as the sequence (P35228 whole entry) above

Turning to `N/C(=N\c1ccc2ccn(CCCN3CCOCC3)c2c1)c1ccsc1`, the Ratio IC50 stood at 50 in experiment [1] and 12.1 in the experiment listed under Homo sapiens.
On to `N/C(=N\c1ccc2ccn(CCCN3CCCC3)c2c1)c1cccs1`, for which the Ratio IC50 in the experiment filed under Homo sapiens was determined as 25.
For the compound `N=C(Nc1ccc2ccn(CCN3CCCCC3)c2c1)c1cccs1`, the IC50 in experiment [2] worked out at 21 µM.
As to `CN(C)CCCn1ccc2ccc(NC(=N)c3cccs3)cc21`, the half-maximal inhibitory concentration (IC50) on Nitric oxide synthase 3 was found to be 23.3 µM.
With `N=C(Nc1ccc2ccn(CCCCn3ccnc3)c2c1)c1cccs1`, the IC50 is above 100 µM in experiment [2] and 23 µM on Nitric oxide synthase 3.
Turning to `CNCCCn1ccc2ccc(/N=C(\N)c3cccs3)cc21`, the Ratio IC50 in the experiment filed under Homo sapiens came out at 6.
With `N=C(Nc1ccc2ccn(CCCN3CCCC3)c2c1)c1cccs1`, the IC50 turned out to be 11.2 µM on Nitric oxide synthase 3 and 0.45 µM at Nitric oxide synthase 1.
`CN1CCCC1CCn1ccc2ccc(/N=C(\N)c3cccs3)cc21` (racemic): the Ratio IC50 in experiment [1] is 309; in the experiment listed under Homo sapiens, 86.
Regarding `CN1CCCC1CCn1ccc2ccc(NC(=N)c3cccs3)cc21` (racemic), the IC50 in experiment [2] turned out to be 68 µM; on Nitric oxide synthase 3 it was 19 µM; at Nitric oxide synthase 1, 0.22 µM.
Consider `CN(C)CCn1ccc2ccc(N=C(N)c3cccs3)cc21`, for which the IC50 in experiment [2] is 60 µM.
Regarding `N/C(=N\c1ccc2ccn(CCCN3CCOCC3)c2c1)c1ccoc1`, in the experiment filed under Homo sapiens, the Ratio IC50 was 19.
In the case of `N/C(=N\c1ccc2ccn(CCCCn3ccnc3)c2c1)c1cccs1`, in the experiment listed under Homo sapiens, the Ratio IC50 was 19.
As for `CCN(CC)CCCn1ccc2ccc(/N=C(\N)c3cccs3)cc21`, the Ratio IC50 in the experiment listed under Homo sapiens was 68.
For `N=C(Nc1ccc2ccn(CCCN3CCOCC3)c2c1)c1cccs1`, the values for the IC50 (in experiment [2]; on Nitric oxide synthase 3; at Nitric oxide synthase 1) were 82 µM, 28.3 µM and 0.7 µM, respectively.
As to `N=C(Nc1ccc2ccn(CCCN3CCOCC3)c2c1)c1ccco1`, the half-maximal inhibitory concentration (IC50) in experiment [2] is 36 µM.
Turning to `CN1CCCC(n2ccc3ccc(NC(=N)c4cccs4)cc32)CC1` (stereo not drawn), the IC50 on Nitric oxide synthase 3 stood at 37.7 µM.
In the case of `N/C(=N\c1ccc2ccn(CCCN3CCOCC3)c2c1)c1ccco1`, the Ratio IC50 in experiment [1] was 15; in the experiment filed under Homo sapiens it was 14.
In the case of `N/C(=N\c1ccc2ccn(CCN3CCCCC3)c2c1)c1cccs1`, the Ratio IC50 in experiment [1] worked out at 43; in the experiment listed under Homo sapiens it was 8.
With `CN1CCCC(n2ccc3ccc(/N=C(\N)c4cccs4)cc32)CC1` (stereo not drawn), the Ratio IC50 in the experiment listed under Homo sapiens was 43.
`CNCCCn1ccc2ccc(NC(=N)c3cccs3)cc21`: the IC50 at Nitric oxide synthase 3 amounted to 11.8 µM.
For `N/C(=N\c1ccc2ccn(CCCN3CCOCC3)c2c1)c1cccs1`, the results for the Ratio IC50 (in experiment [1]; in the experiment listed under Homo sapiens) were 117 and 40, respectively.
With `CN1CCCC(n2ccc3ccc(NC(=N)c4ccco4)cc32)CC1` (stereo not drawn), the figures for the Ratio IC50 (in experiment [1]; in the experiment listed under Homo sapiens) were 2 and 59, respectively. The figures for the 50% inhibitory concentration (IC50) (in experiment [2]; at Nitric oxide synthase 3; at Nitric oxide synthase 1) were 1.2 µM, 30.6 µM and 0.52 µM, respectively.
For the compound `N=C(Nc1ccc2ccn(CCCN3CCOCC3)c2c1)c1ccsc1`, in experiment [2], the IC50 is 70 µM.
Take `CN(C)CCCCn1ccc2ccc(NC(=N)c3cccs3)cc21`: the values for the IC50 (in experiment [2]; at Nitric oxide synthase 3; at Nitric oxide synthase 1) were 66 µM, 2.53 µM and 0.26 µM, respectively.
With `CN(C)CCCCn1ccc2ccc(/N=C(\N)c3cccs3)cc21`, the Ratio IC50 is 254 in experiment [1] and 10 in the experiment listed under Homo sapiens.
As to `CN1CCC[C@H]1CCn1ccc2ccc(/N=C(\N)c3cccs3)cc21`, the Ratio IC50 in experiment [1] amounted to 360; in the experiment listed under Homo sapiens it was 120. Moreover, in experiment [2], the IC50 was found to be 72 µM.
`N=C(Nc1ccc2ccn(CCCN3CCOCC3)c2c1)c1ccoc1`: the IC50 in experiment [2] was above 100 µM.
For the compound `CN1CCC[C@@H]1CCn1ccc2ccc(/N=C(\N)c3cccs3)cc21`, the figures for the Ratio IC50 (in experiment [1]; in the experiment filed under Homo sapiens) were 225 and 50, respectively. For the same compound, the concentration for half-maximal inhibition (IC50) in experiment [2] was determined as 72 µM. Moreover, the outcome in the experiment on Rattus norvegicus [3] and in the experiment with Rattus norvegicus [4] was Active.
`CCN(CC)CCCn1ccc2ccc(NC(=N)c3cccs3)cc21`: the IC50 at Nitric oxide synthase 1 worked out at 0.15 µM.

The term IC50 denotes the midpoint of a concentration-inhibition curve.

Values taken from ChEMBL document CHEMBL1821689, “1,6-Disubstituted indole derivatives as selective human neuronal nitric oxide synthase inhibitors” (Bioorg Med Chem Lett, 2011).
